Experimental data from patent US20060069132A1, “Azolecarboxamide herbicides” (priority 2004, published 2006).

Assays:
[1] = test system: barnyardgrass; experiment: Test A pre-/postemergence herbicide test; format: in vivo, Echinochloa crus-galli
Procedure, shortened: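 Pre: seeded sandy loam, directed soil spray, compound in non-phytotoxic solvent + surfactant. Post: 1–2-leaf plants (2–10 cm), sprayed to runoff. Greenhouse ~10 d; visual injury vs untreated, 0–100 scale.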

[2] = test system: rice; experiment: Test C flooded paddy test; format: in vivo, Oryza sativa; conditions: for Plant response rating, Rice: 500 g ai/ha, visual rating after 12 to 14 days
Procedure, shortened: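 Plants were grown to the 1- to 4-leaf stage (2–18 cm) and then treated postemergence, or grown to the 2-leaf stage for the flooded paddy test. They were held in a greenhouse for 12 to 14 days and then scored by eye against controls, where 0 is no effect and 100 is complete control.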

[3] = test system: common ragweed; experiment: Test C pre-/postemergence herbicide test; format: in vivo, Ambrosia elatior; design: key to Plant response rating, Ragweed: 0 = no effect, 100 = complete control; conditions: for Plant response rating (0 = no effect, 100 = complete control), Ragweed: 62 g ai/ha; for Plant response rating (0 = no effect, 100 = complete control), Ragweed / Plant response rating, Ragweed: preemergence; for Plant response rating, Ragweed: 125 g ai/ha, scale 0 (no effect) to 100 (complete control), visual, 12 to 14 days; for Ragweed plant response rating: Preemergence, 500 g ai/ha, scale 0 to 100, 0 no effect, 100 complete control
Procedure, shortened: (§1)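 Visual injury scores run from 0 (no effect) to 100 (complete control), assessed relative to untreated controls 12 to 14 days after treatment in the greenhouse. Chemicals were formulated in a non-phytotoxic solvent mixture with surfactant and applied to soil after planting or to emerged plants at the 1- to 4-leaf stage.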

[4] = test system: rice; experiment: Test B pre-/postemergence herbicide test; format: in vivo, Oryza sativa; conditions: preemergence
Procedure, shortened: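 Plants compared with untreated controls 13–15 days post-treatment and given a visual 0–100 injury score. Applications: preemergence to seeds; postemergence at 1- to 4-leaf (2–18 cm); paddy species flooded, 2-leaf stage. Vehicle non-phytotoxic, surfactant included.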

[5] = test system: Surinam grass; experiment: Test C pre-/postemergence herbicide test; format: in vivo, Urochloa decumbens; conditions: for Plant response rating (0 = no effect, 100 = complete control), Surinam Grass: 62 g ai/ha; for Plant response rating (0 = no effect, 100 = complete control), Surinam Grass / Plant response rating, Surinam Grass: preemergence; for Plant response rating, Surinam Grass: 125 g ai/ha, scale 0 (no effect) to 100 (complete control), visual, 12 to 14 days; for Surinam Grass plant response rating: Preemergence, 500 g ai/ha, scale 0 to 100, 0 no effect, 100 complete control
Procedure, shortened: as §1

[6] = test system: ducksalad; experiment: Test C flooded paddy test; format: in vivo, Heteranthera limosa; conditions: for Plant response rating, Ducksalad: 500 g ai/ha, visual rating after 12 to 14 days
[7] = test system: large crabgrass; experiment: Test C pre-/postemergence herbicide test; format: in vivo, Digitaria sanguinalis; conditions: for Plant response rating (0 = no effect, 100 = complete control), Crabgrass, Large: 62 g ai/ha; for Plant response rating (0 = no effect, 100 = complete control), Crabgrass, Large / Plant response rating, Crabgrass, Large: preemergence; for Plant response rating, Crabgrass, Large: visual, 12 to 14 days; for Crabgrass, Large plant response rating: Preemergence, 500 g ai/ha, scale 0 to 100, 0 no effect, 100 complete control
Procedure, shortened: as §1

[8] = test system: eastern black nightshade; experiment: Test C pre-/postemergence herbicide test; format: in vivo, Solanum ptycanthum; conditions: for Plant response rating (0 = no effect, 100 = complete control), Nightshade: 62 g ai/ha; for Plant response rating (0 = no effect, 100 = complete control), Nightshade / Plant response rating, Nightshade: preemergence; for Plant response rating, Nightshade: 125 g ai/ha, scale 0 (no effect) to 100 (complete control), visual, 12 to 14 days; for Nightshade plant response rating: Preemergence, 500 g ai/ha, scale 0 to 100, 0 no effect, 100 complete control
Procedure, shortened: as §1

[9] = test system: pigweed; experiment: Test C pre-/postemergence herbicide test; format: in vivo, Amaranthus retroflexus; conditions: for Plant response rating (0 = no effect, 100 = complete control), Pigweed: 62 g ai/ha; for Plant response rating (0 = no effect, 100 = complete control), Pigweed / Plant response rating, Pigweed: preemergence; for Plant response rating, Pigweed: 125 g ai/ha, scale 0 (no effect) to 100 (complete control), visual, 12 to 14 days; for Pigweed plant response rating: Preemergence, 500 g ai/ha, scale 0 to 100, 0 no effect, 100 complete control
Procedure, shortened: as §1

[10] = Postemergence, 500 g ai/ha, 0 to 100 scale, 0 no effect, 100 complete control
[11] = Postemergence, 2000 g ai/ha, 0 to 100 scale, 0 no effect, 100 complete control
[12] = Preemergence, 500 g ai/ha, visual rating, 0 to 100 scale (0 no effect, 100 complete control)
[13] = Preemergence, 2000 g ai/ha, 0 to 100 scale, 0 no effect, 100 complete control
[14] = 62 g ai/ha, scale 0 to 100 (0 no effect, 100 complete control)
[15] = 125 g ai/ha, scale of 0 to 100, 0 is no effect, 100 is complete control
[16] = 250 g ai/ha, scale of 0 to 100, 0 is no effect, 100 is complete control
[17] = scale 0 to 100 (0 no effect, 100 complete control)
[18] = 125 g ai/ha, 0 to 100 scale, 0 is no effect, 100 is complete control
[19] = 125 g ai/ha, scale 0 (no effect) to 100 (complete control)
[20] = 250 g ai/ha, scale 0 to 100 (0 no effect, 100 complete control)
[21] = 125 g ai/ha, scale 0 to 100 (0 no effect, 100 complete control)

Structure (SMILES): CCn1nc(C(C)(C)C)cc1C(=O)Nc1cccc2c1CCN(C1CC1)C2=O [Compound 64]
- Plant response rating, Barnyardgrass [1, 10]: 30
- Plant response rating, Barnyardgrass [1, 11]: 75
- Barnyardgrass plant response rating [1, 12]: 55
- Barnyardgrass plant response rating [1, 13]: 85
- Rice plant response rating [2, 14]: 0
- Rice plant response rating [2, 15]: 0
- Rice plant response rating [2, 16]: 0
- Plant response rating, Rice [2, 17]: 15
- Plant response rating (0 = no effect, 100 = complete control), Ragweed [3]: 0
- Plant response rating, Ragweed [3]: 0
- Ragweed plant response rating [3]: 20
- Plant response rating, Rice [4, 18]: 0
- Plant response rating (0 = no effect, 100 = complete control), Surinam Grass [5]: 0
- Plant response rating, Surinam Grass [5]: 5
- Surinam Grass plant response rating [5]: 50
- Ducksalad plant response rating [6, 14]: 0
- Ducksalad plant response rating [6, 15]: 10
- Ducksalad plant response rating [6, 16]: 25
- Plant response rating, Ducksalad [6, 17]: 40
- Plant response rating (0 = no effect, 100 = complete control), Crabgrass, Large [7]: 0
- Plant response rating, Crabgrass, Large [7, 19]: 40
- Plant response rating, Crabgrass, Large [7, 20]: 70
- Crabgrass, Large plant response rating [7]: 90
- Plant response rating (0 = no effect, 100 = complete control), Nightshade [8]: 0
- Plant response rating, Nightshade [8]: 50
- Nightshade plant response rating [8]: 95
- Plant response rating (0 = no effect, 100 = complete control), Pigweed [9]: 30
- Plant response rating, Pigweed [9]: 70
- Pigweed plant response rating [9]: 100

Structure (SMILES): CCCN1CCc2c(NC(=O)c3cc(C(C)(C)C)nn3CC)cccc2C1=O [Compound 65]
- Plant response rating, Barnyardgrass [1, 10]: 45
- Plant response rating, Barnyardgrass [1, 11]: 75
- Barnyardgrass plant response rating [1, 12]: 55
- Barnyardgrass plant response rating [1, 13]: 70
- Rice plant response rating [2, 14]: 0
- Rice plant response rating [2, 15]: 0
- Rice plant response rating [2, 16]: 25
- Plant response rating, Rice [2, 17]: 30
- Plant response rating (0 = no effect, 100 = complete control), Ragweed [3]: 0
- Plant response rating, Ragweed [3]: 0
- Ragweed plant response rating [3]: 60
- Plant response rating, Rice [4, 18]: 10
- Plant response rating (0 = no effect, 100 = complete control), Surinam Grass [5]: 0
- Plant response rating, Surinam Grass [5]: 0
- Surinam Grass plant response rating [5]: 50
- Ducksalad plant response rating [6, 14]: 15
- Ducksalad plant response rating [6, 15]: 45
- Ducksalad plant response rating [6, 16]: 75
- Plant response rating, Ducksalad [6, 17]: 85
- Plant response rating (0 = no effect, 100 = complete control), Crabgrass, Large [7]: 50
- Plant response rating, Crabgrass, Large [7, 19]: 50
- Plant response rating, Crabgrass, Large [7, 20]: 80
- Crabgrass, Large plant response rating [7]: 100
- Plant response rating (0 = no effect, 100 = complete control), Nightshade [8]: 50
- Plant response rating, Nightshade [8]: 90
- Nightshade plant response rating [8]: 100
- Plant response rating (0 = no effect, 100 = complete control), Pigweed [9]: 70
- Plant response rating, Pigweed [9]: 100
- Pigweed plant response rating [9]: 100

Structure (SMILES): CCOC(=O)c1cccc(NC(=O)c2cc(C(C)(C)C)nn2CC)c1C [Compound 88]
- Barnyardgrass plant response rating [1, 10]: 85
- Plant response rating, Barnyardgrass [1, 11]: 100
- Barnyardgrass plant response rating [1, 12]: 75
- Barnyardgrass plant response rating [1, 13]: 90
- Rice plant response rating [2, 14]: 0
- Rice plant response rating [2, 15]: 0
- Rice plant response rating [2, 16]: 20
- Plant response rating, Rice [2, 17]: 45
- Plant response rating (0 = no effect, 100 = complete control), Ragweed [3]: 0
- Plant response rating, Ragweed [3]: 0
- Ragweed plant response rating [3]: 20
- Plant response rating, Rice [4, 18]: 20
- Plant response rating (0 = no effect, 100 = complete control), Surinam Grass [5]: 10
- Plant response rating, Surinam Grass [5]: 20
- Surinam Grass plant response rating [5]: 95
- Ducksalad plant response rating [6, 14]: 0
- Ducksalad plant response rating [6, 15]: 15
- Ducksalad plant response rating [6, 16]: 40
- Plant response rating, Ducksalad [6, 17]: 75
- Plant response rating (0 = no effect, 100 = complete control), Crabgrass, Large [7]: 90
- Plant response rating, Crabgrass, Large [7, 19]: 95
- Plant response rating, Crabgrass, Large [7, 20]: 95
- Crabgrass, Large plant response rating [7]: 100
- Plant response rating (0 = no effect, 100 = complete control), Nightshade [8]: 40
- Plant response rating, Nightshade [8]: 90
- Nightshade plant response rating [8]: 95
- Plant response rating (0 = no effect, 100 = complete control), Pigweed [9]: 100
- Plant response rating, Pigweed [9]: 100
- Pigweed plant response rating [9]: 100

Structure (SMILES): CCn1nc(C(C)(C)C)cc1C(=O)Nc1cccc(SC)c1 [Compound 131]
- Barnyardgrass plant response rating ([1]; Postemergence, 250 g ai/ha, 0 to 100 scale, 0 no effect, 100 complete control): 25
- Plant response rating, Barnyardgrass ([1]; Postemergence, 1000 g ai/ha, 0 to 100 scale, 0 no effect, 100 complete control): 60
- Barnyardgrass plant response rating ([1]; Preemergence, 1000 g ai/ha, visual rating, 0 to 100 scale (0 no effect, 100 complete control)): 50
- Barnyardgrass plant response rating ([1]; preemergence, 250 g ai/ha, visual injury, 0 to 100 scale (0 no effect, 100 complete control)): 45
- Rice plant response rating [2, 14]: 0
- Rice plant response rating [2, 21]: 0
- Rice plant response rating [2, 16]: 0
- Plant response rating, Rice [2, 17]: 10
- Plant response rating (0 = no effect, 100 = complete control), Ragweed [3]: 40
- Plant response rating, Ragweed [3]: 50
- Plant response rating, Rice ([4]; 500 g ai/ha, visual rating 0-100, 0 no effect, 100 complete control): 50
- Plant response rating (0 = no effect, 100 = complete control), Surinam Grass [5]: 0
- Plant response rating, Surinam Grass [5]: 0
- Ducksalad plant response rating [6, 14]: 0
- Ducksalad plant response rating [6, 21]: 20
- Ducksalad plant response rating [6, 16]: 45
- Plant response rating, Ducksalad [6, 17]: 80
- Plant response rating (0 = no effect, 100 = complete control), Crabgrass, Large [7]: 45
- Plant response rating, Crabgrass, Large [7, 19]: 90
- Plant response rating, Crabgrass, Large [7, 20]: 90
- Plant response rating (0 = no effect, 100 = complete control), Nightshade [8]: 55
- Plant response rating, Nightshade [8]: 95
- Plant response rating (0 = no effect, 100 = complete control), Pigweed [9]: 95
- Plant response rating, Pigweed [9]: 100
